From the CheMixHub ionic liquid set

Experiment: xn = mol fraction of the nth substance listed

CCCCCCCCCCCCOS(=O)(=O)[O-].[Na+] + CCCO + O
298 K, 100 kPa, frequency 0.001 MHz
Details	electrical conductivity [S/m]
x2 = 0.01543, x1 = 3.435e-05	0.0146
x2 = 0.02615, x3 = 0.9738	0.033
x2 = 0.04737, x3 = 0.9525	0.0508
x2 = 0.07172, x3 = 0.9277	0.102
x2 = 0.07173, x3 = 0.9279	0.0751

298.15 K, 101 kPa
Details	electrical conductivity [S/m]
x2 = 0, x1 = 3.24e-06	0.001447
x2 = 0, x1 = 8.11e-06	0.003433
x2 = 0, x1 = 1.64e-05	0.006697
x2 = 0, x1 = 2.505e-05	0.01006
x2 = 0, x1 = 2.991e-05	0.0119
x2 = 0, x1 = 3.478e-05	0.01378
x2 = 0, x1 = 3.964e-05	0.01564
x2 = 0, x1 = 5.063e-05	0.01999
x2 = 0, x1 = 6.198e-05	0.02434
x2 = 0, x1 = 7.406e-05	0.02896
x2 = 0, x1 = 8.09e-05	0.03151
x2 = 0, x1 = 8.667e-05	0.03369
x2 = 0, x1 = 9.135e-05	0.03548
x2 = 0, x1 = 9.694e-05	0.03753
x2 = 0, x1 = 0.0001016	0.03931
x2 = 0, x1 = 0.000107	0.04131
x2 = 0, x1 = 0.0001175	0.0452
x2 = 0, x1 = 0.0001223	0.047
x2 = 0, x1 = 0.0001268	0.04874
x2 = 0, x1 = 0.0001315	0.0504
x2 = 0, x1 = 0.0001364	0.05202
x2 = 0, x1 = 0.0001411	0.05353
x2 = 0, x1 = 0.0001454	0.05471
x2 = 0, x1 = 0.0001541	0.05656
x2 = 0, x1 = 0.0001586	0.05737
x2 = 0, x1 = 0.0001631	0.05814
x2 = 0, x1 = 0.0001692	0.05912
x2 = 0, x1 = 0.0001735	0.05977
x2 = 0, x1 = 0.000178	0.06043
x2 = 0, x1 = 0.0001825	0.06112
x2 = 0, x1 = 0.0001892	0.06206
x2 = 0, x1 = 0.0001935	0.06269
x2 = 0, x1 = 0.0002002	0.06378
x2 = 0, x1 = 0.0002048	0.06444
x2 = 0, x1 = 0.0002097	0.06508
x2 = 0, x1 = 0.000214	0.06575
x2 = 0.007626, x1 = 0.0004015	0.09227
x2 = 0.007627, x1 = 0.0002602	0.06737
x2 = 0.007627, x1 = 0.0002829	0.07143
x2 = 0.007627, x1 = 0.0003124	0.07668
x2 = 0.007627, x1 = 0.0003456	0.08254
x2 = 0.007628, x1 = 0.0001267	0.04228
x2 = 0.007628, x1 = 0.000135	0.04399
x2 = 0.007628, x1 = 0.0001447	0.04592
x2 = 0.007628, x1 = 0.0001683	0.05047
x2 = 0.007628, x1 = 0.0001845	0.05346
x2 = 0.007628, x1 = 0.0002013	0.05663
